Test results: patent US11236122B2, “Triterpene amine derivatives” (DFH THERAPEUTICS, priority 2018, dated 2022)
Structures can show the parent of a compound that is named as a salt.

What was measured:
[1] = tested on: panel of HIV-1 isolates in human PBMCs; assay: PBMC antiviral assay against a panel of HIV-1 isolates (RT activity); type: cell-based
Method: Antiviral assays. To produce HIV-1 stocks, 293T cells were transfected with WT pNL4-3 or the SP1-V7A derivative and culture supernatants were collected 24 h post transfection. RT-normalized virus supernatants were used to infect MT-4 cells at room temperature for 30 min. Cells were then cultured in the presence of serial dilutions of compounds. At 4 d post-infection, the culture supernatants were subjected to RT assay to monitor viral replication. The 50% inhibitory concentrations (IC50s) were defined as compound concentrations that reduced RT levels to 50% those measured in the absence of inhibitor (DMSO only controls) using GraphPad Prism 6 software. The IC50s in primary peripheral blood mononuclear cells (PBMCs) were calculated with a multi-clade panel of HIV-1 isolates by Southern Research Institute (Frederick, Md.). The PBMCs were stimulated with phytohemagglutinin (PHA) and IL-2 prior to use in the antiviral assays.
Virus Isolates. Compound evaluation against a panel of HIV-1 isolates were performed by the Southern Research Institute (SRI). The viruses were chosen to include one isolate from each of the seven HIV-1 Group M envelope subtypes A, B, C, D, E, F, and G, as well as isolates from HIV-1 Groups O and N. In addition, various drug resistant HIV-1 isolates were included for evaluation. The HIV-1 isolates selected include CCR5-tropic and CXCR4-tropic isolates. Unless otherwise noted, all virus isolates were obtained from the NIH AIDS Research and Reference Reagent Program. Virus isolate 1022-48 was obtained from Dr. William A. Schief of Merck Research Laboratories. MDR769 and MDR807 were obtained from Dr. Thomas C. Merigan of Stanford University. A low passage stock of each virus was prepared using fresh human PBMCs and stored in liquid nitrogen. Pre-titered aliquots of each virus were removed from the freezer and thawed rapidly to rt in a biological safety cabinet immediately before use.
Human PBMC Preparation. Fresh human PBMCs were isolated from screened donors, seronegative for HIV and HBV (Biological Specialty Corporation, Colmar, Pa.). Cells were pelleted/washed 2-3 times by low speed centrifugation and resuspension in Dulbecco's phosphate buffered saline (PBS) to remove contaminating platelets. The leukophoresed blood was then diluted 1:1 with PBS and layered over 14 mL of Ficoll-Hypaque density gradient (Lymphocyte Separation Medium, Cell Grow #85-072-CL, density 1.078+/−0.002 g/mL) in a 50 mL centrifuge tube and then centrifuged for 30 min at 600×g. Banded PBMCs were gently aspirated from the resulting interface and subsequently washed twice with PBS by low speed centrifugation. After the final wash, cells were enumerated by trypan blue exclusion and re-suspended at 1×10^6 cells/mL in RPMI 1640 supplemented with 15% Fetal Bovine Serum (FBS), 2 mM L-glutamine, 100 U/mL penicillin, […] streptomycin, and 4 μg/mL Phytohemagglutinin (PHA; Sigma, St. Louis, Mo.; cat #L1668). The cells were allowed to incubate for 48-72 h at 37° C. After incubation, PBMCs were centrifuged and resuspended in RPMI 1640 with 15% FBS, L-glutamine, penicillin, streptomycin, non-essential amino acids (MEM/NEAA; Hyclone; cat #SH30238.01), and 20 U/mL recombinant human IL-2 (R&D Systems Inc., Minneapolis, Minn.; cat #202IL). PBMCs were maintained in this medium at a concentration of 1-2×10^6 cells/mL, with twice-weekly medium changes until they were used in the assay protocol. Monocytes-derived-macrophages were depleted from the culture as the result of adherence to the tissue culture flask.
PBMC Assay. For the standard PBMC assay, PHA stimulated cells from at least two normal donors were pooled (mixed together), diluted in fresh medium to a final concentration of 1×10^6 cells/mL, and plated in the interior wells of a 96 well round bottom microplate at 50 μL/well (5×10^4 cells/well) in a standard formate developed by the Infectious Disease Research Department of the SRI. […]

[2] = tested on: HIV-1 clade C K3016 in HUT-R5 cells; assay: Antiviral assay in HUT-R5 cells (p24), K3016; type: cell-based; conditions: Human immunodeficiency virus 1, 192 h, 8 days, mean ± SEM, 2 experiments
Method: Antiviral assays. HUT-R5 cells were infected with normalized HIV-1 clade C K3016 virus stocks at 37° C. for 1 h. Cells were then maintained for 8 days in the presence of serial dilutions of the compounds assayed. After 8 days, the HIV-1 p24 concentration in the virus supernatants was measured to monitor virus replication. The 50% inhibitory concentrations (IC50s) were determined that reduced HIV-1 p24 levels to 50% relative to DMSO-only controls.

WT pNL4-3 = assay: CA-SP1 accumulation assay, WT NL4-3; type: cell-based, HIV-1; conditions: HeLa or 293T cells; for % CA-SP1 Accumulation 10 nM NL4-3: 10 nM compound
Procedure, shortened: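 HeLa or 293T cells transfected with proviral clone, maturation inhibitors present through transfection and labeling; at 24 h, [^35S]Met/Cys labeling 2-3 h. Virions pelleted by ultracentrifugation, lysed, CA and CA-SP1 resolved by SDS-PAGE and quantified by phosphorimaging.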

[3] = Human immunodeficiency virus 1, IIIB, PBMC, isolate A17 (IIIB)
[4] = Human immunodeficiency virus 1, NL43, PBMC, isolate NL4-3, PBMC
[5] = Human immunodeficiency virus 1, NL43, PBMC, isolate NL4-3 gp41(36G) N42T, N43K, PBMC
[6] = Human immunodeficiency virus 1, PBMC, isolate 92BR030, PBMC
[7] = Human immunodeficiency virus 1, PBMC, isolate 92RW009, PBMC
[8] = Human immunodeficiency virus 1, PBMC, isolate 92UG001, PBMC
[9] = Human immunodeficiency virus 1, PBMC, isolate 93BR020, PBMC
[10] = Human immunodeficiency virus 1, PBMC, isolate 93BR029, PBMC
[11] = Human immunodeficiency virus 1, PBMC, isolate 93IN101, PBMC
[12] = Human immunodeficiency virus 1, PBMC, isolate 99UGA07412MI, PBMC
[13] = Human immunodeficiency virus 1, PBMC, isolate 1022-48, PBMC
[14] = Human immunodeficiency virus 1, PBMC, isolate 1064-52, PBMC
[15] = Human immunodeficiency virus 1, PBMC, isolate 4736_4 (NL4-3), PBMC
[16] = Human immunodeficiency virus 1, PBMC, isolate BCF02, PBMC
[17] = Human immunodeficiency virus 1, PBMC, isolate CMU02, PBMC
[18] = Human immunodeficiency virus 1, PBMC, isolate JV1083, PBMC
[19] = Human immunodeficiency virus 1, PBMC, isolate MDR769, PBMC
[20] = Human immunodeficiency virus 1, PBMC, isolate YBF30, PBMC

C=C(C)[C@@H]1CC[C@]2(CCNCCN3CCS(=O)(=O)CC3)CC[C@]3(C)[C@H](CC[C@@H]4[C@@]5(C)CC[C@H](OC(=O)CC(C)(C)C(=O)O)C(C)(C)[C@@H]5CC[C@]43C)[C@@H]12 [Compound 51ee, (3β)-17-[[[2-[2-(1,1-Dioxothiomorpholin-4-yl)]Ethyl]Amino]Ethyl]-28-norlup-20(29)-en-3-ol, 3-(1-Hydrogen 2,2-Dimethylbutanedioate)]
IC50 [1, 3]: 1.4 nM | IC50 [1, 4]: 0.8 nM | IC50 [1, 5]: 1.3 nM | IC50 [1, 6]: 455 nM | IC50 [1, 7]: 20.7 nM | IC50 [1, 8]: 0.4 nM | IC50 [1, 9]: 1.8 nM | IC50 [1, 10]: 0.9 nM | IC50 [1, 11]: 2.7 nM | IC50 [1, 12]: 2.2 nM | IC50 [1, 13]: 1.1 nM | IC50 [1, 14]: 0.5 nM | IC50 [1, 15]: 1 nM | IC50 [1, 16]: 1.7 nM | IC50 [1, 17]: 110 nM | IC50 [1, 18]: 126 nM | IC50 [1, 19]: 1.4 nM | IC50 [1, 20]: 8.4 nM | IC50 [2]: 3.6 ± 0.22 nM | % CA-SP1 Accumulation 10 nM NL4-3 (WT pNL4-3): 73.5%

C=C(C)[C@@H]1CC[C@]2(CCNC3CCN(CCO)CC3)CC[C@]3(C)[C@H](CC[C@@H]4[C@@]5(C)CC[C@H](OC(=O)CC(C)(C)CC(=O)O)C(C)(C)[C@@H]5CC[C@]43C)[C@@H]12 [Compound 51f, (3β)-17-[2-[[1-(2-Hydroxyethyl)piperidin-4-yl]amino]ethyl]-28-norlup-20(29)-en-3-ol, 3-(Hydrogen 3,3-Dimethylpentanedioate), Bis(trifluoroacetate) Salt]
IC50 [1, 3]: 8.2 nM | IC50 [1, 4]: 4 nM | IC50 [1, 5]: 5.6 nM | IC50 [1, 6]: 100 nM | IC50 ([1]; Human immunodeficiency virus 1, PBMC, isolate 92UG031, PBMC): > 1000 nM | IC50 [1, 10]: 5.1 nM | IC50 [1, 11]: 89 nM | IC50 [1, 12]: 8.2 nM | IC50 [1, 13]: 18.9 nM | IC50 [1, 15]: 3.3 nM | IC50 [1, 16]: 4.6 nM | IC50 [1, 17]: 316 nM | IC50 [1, 18]: 477 nM | IC50 [1, 19]: 5.9 nM | IC50 ([1]; Human immunodeficiency virus 1, PBMC, isolate MDR807, PBMC): > 1000 nM | IC50 [1, 20]: 14.8 nM | % CA-SP1 Accumulation 100 nM NL4-3 (WT pNL4-3; 100 nM compound): 79.7 (3) %

C=C(C)[C@@H]1CC[C@]2(CCNCCN3CCN(S(C)(=O)=O)CC3)CC[C@]3(C)[C@H](CC[C@@H]4[C@@]5(C)CC[C@H](OC(=O)CC(C)(C)C(=O)O)C(C)(C)[C@@H]5CC[C@]43C)[C@@H]12 [Compound 51ff, (3β)-17-[2-[[2-[4-(Methylsulfonyl)piperazin-1-yl]ethyl]amino]ethyl]-28-norlup-20(29)-en-3-ol, 3-(1-Hydrogen 2,2-Dimethylbutanedioate)]
IC50 [1, 3]: 1.8 nM | IC50 [1, 4]: 0.8 nM | IC50 [1, 5]: 1.4 nM | IC50 [1, 6]: > 1000 nM | IC50 [1, 7]: 39.4 nM | IC50 [1, 8]: < 0.15 nM | IC50 [1, 9]: 2.4 nM | IC50 [1, 10]: 1.1 nM | IC50 [1, 11]: 14.2 nM | IC50 [1, 12]: 4.3 nM | IC50 [1, 13]: 1.3 nM | IC50 [1, 14]: 0.7 nM | IC50 [1, 15]: 0.8 nM | IC50 [1, 16]: 2.8 nM | IC50 [1, 17]: 217 nM | IC50 [1, 18]: 460 nM | IC50 [1, 19]: 1.7 nM | IC50 [1, 20]: 3.6 nM | IC50 [2]: 2.27 ± 0.56 nM | % CA-SP1 Accumulation 10 nM NL4-3 (WT pNL4-3): 72.7 (3) %

C=C(C)[C@@H]1CC[C@]2(CCNCCN3CCN(Cc4ccccc4)CC3)CC[C@]3(C)[C@H](CC[C@@H]4[C@@]5(C)CC[C@H](OC(=O)CC(C)(C)C(=O)O)C(C)(C)[C@@H]5CC[C@]43C)[C@@H]12 [Compound 51hh, (3β)-17-[2-[[2-[4-(Phenylmethyl)piperazin-1-yl]ethyl]amino]ethyl]-28-norlup-20(29)-en-3-ol, 3-(1-Hydrogen 2,2-Dimethylbutanedioate)]
IC50 [1, 3]: 6.1 nM | IC50 [1, 4]: 1.4 nM | IC50 [1, 5]: 3.8 nM | IC50 [1, 6]: > 1000 nM | IC50 [1, 7]: 10.4 nM | IC50 [1, 8]: 1.2 nM | IC50 [1, 9]: 3 nM | IC50 [1, 10]: 4.1 nM | IC50 [1, 11]: 5.6 nM | IC50 [1, 12]: 8 nM | IC50 [1, 13]: 3.2 nM | IC50 [1, 14]: 1.7 nM | IC50 [1, 15]: 1.4 nM | IC50 [1, 16]: 3.8 nM | IC50 [1, 17]: 11.1 nM | IC50 [1, 18]: 17.1 nM | IC50 [1, 19]: 4.4 nM | IC50 [1, 20]: 132 nM | IC50 ([1]; isolate CMU02, PBMC): 7.1 nM | IC50 [2]: 3.89 ± 0.18 nM | % CA-SP1 Accumulation 10 nM NL4-3 (WT pNL4-3): 66.4 (3) %
